Experimental data published in patent publication US6969590B2, “Use of a polypeptide for treatment of pruritus in animals” (Zengen, Inc., priority 2001, dated 2005).

Columns and labels:
[1] = system: carrageenan-induced swelling in rat paws; assay: Rat paw edema test; format: in vivo, Sprague-Dawley rats
Protocol: A second in vivo bioassay for anti-inflammatory activity was conducted in which the action of the tripeptide was compared to that of hydrocortisone. In this assay, the two agents were given at similar doses and tested for their independent ability to inhibit carrageenan-induced swelling in rat paws. This assay, the rat paw edema test, was conducted generally as it is typically performed in the art, for example, as described by Winter et al. (1962), Proc. Soc. Exp. Biol. Med., 111:544 or in U.S. Pat. No. 4,150,137. Briefly, the assay was performed as follows. Each of twenty-four male Sprague-Dawley rats was assigned to one of four groups: Tripeptide treatment and controls (matched according to body weight and initial paw volume), hydrocortisone treatment and matched controls. The volume of the right rear paw of the test and control animals was determined using standard procedures and a mercury displacement volumetric technique. […] One hour later 0.5 ml of 1% lambda carrageenan in saline solution was injected into the right rear paw of the animals and the paw volume was again recorded (baseline measure). For comparison of the effects of the two treatments, paw volume of experimental animals measured at hourly intervals was expressed as a percentage of the volume change of their respective matched controls.

NO2^− = assay: Nitrite (NO) production by activated N9 microglia; format: cell-based, murine; details: microglia stimulated with LPS+IFN-γ for 24 hr, micromolar concentrations
Protocol: (§1) The N9 clone of murine microglial cells was obtained by immortalization of embryonic brain cultures with the 3RV retrovirus carrying an activated v-myconcogene. N9 cells were cultured in T-75-cm^2 culture flasks (Corning, Cambridge, Mass.) and maintained at 37° C. in a humidified incubator under 5% CO2 atmosphere in RPMI 1640 supplemented with 2 mM L-glutamine, 50 U/mL penicillin G, 50 μg/mL streptomycin sulfate (GIBCO-BBL, Paisley, UK), and 10% heat-inactivated fetal bovine serum (FBS, Hyclone Lab, Inc., Logan, Utah) until experiments were performed. Cells were used between the first and the tenth passage.
(§2) Sub-confluent microglial cells were washed twice with phosphate-buffered saline (PBS) and incubated with trypsin 0.025% and ethylenediaminetetraacetate (EDTA) 0.02% without calcium and magnesium for 3 min. at 37° C. to detach the cells from the culture flask. Cells were then resuspended in medium and incubated in 24-well tissue-culture plates at a concentration of 2×10^5 cells/mL for 16 h in a humidified incubator (37° C., 5% CO2). Growth medium was removed and cell monolayers were stimulated with 10 ng/mL lipopolysaccharide (LPS, from Escherichia coli 055:B5, Sigma Chemical Co., St. Louis, Mo.) plus 1 U/ml, murine IFN-γ (Sigma). To test effects of melanocortin peptides, concentrations (1, 10, 25, 50 and 100 μM) of α-MSH (1-13), α-MSH (11-13), and ACTH (1-24) (Sigma) were dissolved in medium and added to wells 10 min before treatment with LPS+IFN-γ. […] Viability of cells was assessed by trypan blue exclusion for each experimental condition; it was consistently >98%. […]
NO is rapidly oxidized to nitrite (NO2) in culture medium, and nitrite concentration is an indicator of NO production. […] Samples were incubated at room temperature for 10 min and absorbency was measured at 540 nm with the use of a microplate reader. Nitrite concentrations were calculated using a sodium nitrite standard curve.
(§3) Effects of melanocortin peptides on cytokine and NO production were evaluated by repeated measures analysis of variance followed by Dunnet's test for specific comparisons. […]

TNF-α = TNF-α production by activated N9 microglia; format: cell-based, murine; details: microglia stimulated with LPS+IFN-γ for 24 hr, micromolar concentrations
Protocol: as §1, §2
(§4) TNF-α bioactivity was measured in supernatants of cell cultures by standard cytotoxicity assay using L929 cells and recombinant human TNF-α (Sigma) as standard. […] IL-6 was measured using a commercial murine enzyme-linked immunosorbent assay (ELISA: RPN 2714, Amersham, Little Chalfont, UK).
as §3

TNF-α and iNOS mRNA = assay: Northern blot of TNF-α and iNOS mRNA in activated microglia; format: cell-based, murine
Protocol: Total cellular RNA was extracted from 10^6 adherent microglial cells plated in six-well tissue culture plates (Corning). Electrophoresis of RNA samples (10 μg/lane) was performed in 1% agarose/2.2 M formaldehyde gels and the gels subsequently blotted onto nylon filters by capillary action and baked for 2 h before prehybridization. The cDNA fragments encoding murine TNF-α and mouse macrophage iNOS were ^32P-labeled using the Ready-To-Go DNA Labeling Kit (Pharmacia, Uppsala, Sweden) before hybridization of nylon filters and autoradiography. Blots were subsequently rehybridized with human glyceraldehyde-3-phosphate dehydrogenase (G-3-PDH) cDNA probe as an internal control (Clontech Laboratories, Inc., Palo Alto, Calif.).

IL-6 = IL-6 production by activated N9 microglia; format: cell-based, murine; details: microglia stimulated with LPS+IFN-γ for 24 hr, micromolar concentrations
Protocol: as §1, §2, §4, §3

[2] = system: inflammation induced in the hind paw; assay: Kappa carrageenan-induced hind paw inflammation, spinal cord intact or transected; format: in vivo, BALB/c mice; details: given intraperitoneally, spinal cord transection
Protocol: Because surgical dissection of trigeminal structures that innervate the ear of the mouse is very difficult, tests to learn whether descending neural pathways are essential to the anti-inflammatory activity of centrally administered α-MSH peptides were performed in mice with inflammation induced in a hind paw. In these experiments, each animal was anesthetized with pentobarbital sodium solution as above. Baseline footpad thickness of both hind paws was measured with a spring-loaded micrometer (Swiss Precision Instruments, Los Angeles, Calif.). Paw thickness was expressed in units of 10^−3 cm; average thickness of unstimulated paws was 171.5×10^−3 cm across shipments of animals. Kappa carrageenan (Sigma) dissolved in saline (0.05%, 20 μl) was injected (28 gauge allergy test syringe) into one footpad, and saline (20 μl) was injected into the other. For the analyses, the increase in thickness of the control saline-injected paw of each animal was subtracted from that of the carrageenan-injected paw, to eliminate the influence of mechanical injury and volume of the injected fluid. To be certain that mice with severed spinal cords can react to anti-inflammatory agents, prednisolone (2.5 mg/mouse (IP injection)) was administered to 10 mice with spinal transection and inflammation induced by carrageenan. Treatment with the locally acting steroid reduced swelling up to 29% (average, relative to saline controls) at 4.5 h. after carrageenan.
However, a standardized crushing of lumbar vertebrae with a hemostat was effective in severing the cord; no deaths were caused by this treatment. […] The experiments were limited to 4.5 h to reduce problems of bowel and bladder dysfunction. Immediately after the 4.5 h measurements all mice were killed with an overdose of sodium pentobarbital.
Because of the size of the experiments and the requirement for several shipments of animals over time, several experiments were performed, each with complete treatment and control groups drawn from the same shipment of mice. Omnibus analysis of variance techniques (Dynastat, Washington, D.C.) were used to test overall differences among group means. Tukey's protected t test was used to compare individual means. Probability values of <0.05 were considered significant.

[3] = system: histamine-induced blue weal formation; assay: Sparrow/Wilhelm assay: histamine-induced blue wheals; format: in vivo, New Zealand white rabbits; details: for relative intensity of blue wheals, experimental vs control: scored 30 minutes after histamine
Source text: This model relies on the principal that localized, subcutaneous injections of histamine will result in a localized increase in capillary permeability. When the test animal has been pretreated with blue dye intravenously, the localized histamine injections will elicit blue-colored wheals around the injection site. Thus, by pre-administration of an effective anti-inflammatory agent the blue color of the histamine-induced wheals will be much less pronounced, with the amount of color reduction being dependent on the relative amount and/or potency of the anti-inflammatory agent used.
Non-molting New Zealand white rabbits were used for the Sparrow/Wilhelm assay. The skin of the rabbits back was closely clipped 1-2 days previous to the experiment, but not depilated, and the rabbits were kept warm until tested. Various amounts of the protected tripeptide Ac-Lys-Pro-Val-NH2 were injected intravenously into an ear vein approximately 15 minutes prior to intravenous injection of blue dye. Control rabbits received sham injections. Fifteen minutes following injection of the agent or sham, the rabbits received approximately 30 mg/kg of Pontamine blue dye as a 2.5% solution in 0.45% saline, into an exposed vein. Immediately following dye injections, histamine was injected intradermally in a 0.10 ml volume (1.25 mg histamine 0.1 ml volume) at several sites on each side of the spine. In all, one vertical row of six injections were made on each side of the spine. The relative intensity of the resultant blue wheals were scored by an independent observer 30 minutes after histamine injection.

[4] = system: inflammation induced in the ear by picryl chloride; assay: Picryl chloride-induced ear swelling; format: in vivo, BALB/C mice
Protocol: Female BALB/C mice (Simmons Laboratories), 7 weeks old, were housed at 23-25° C. in groups of no more than 5 per cage [28 cm (L)×18 cm (W)×13 cm (H)]. They were allowed to acclimatize to standard lighting and temperature conditions for at least 1 week, with food and water available ad lib, before the experiment began. Five to ten animals were randomly assigned to each treatment group each test day, and all experiments were repeated at least twice to confirm reproducibility. To reduce error due to slight differences in responses to the irritant of animals from different shipments, tests of each agent were performed as separate experiments in which experimental and control animals were drawn from the same shipment.
In the experiments each animal was anesthetized with 1 mg of pentobarbital sodium solution (50 mg/kg, Nembutal, Abbott Laboratories, Abbott park, Ill.). Baseline ear thickness was measured for both ears with a spring-loaded micrometer (Swiss Precision Instruments, Los Angeles, Calif.). Ear thickness was expressed in units of 10^−3 cm; the average thickness of unstimulated ears was approximately 25-30×10^−3 cm. After baseline measurements were taken, one of six solutions was injected IP. Control animals received 0.2 ml of sterile saline, and experimental animals received Ac-α-MSH (11-13)-NH2, i.e., Ac-Lys-Pro-Val-NH2), Ac[D-Lys^11] α-MSH (11-13)-NH2, Ac[D-Pro^12] α-MSH (11-13)-NH2, Ac[D-Val^13] α-MSH (11-13)-NH2 or Ac-[D-Lys^11, D-Val^13] α-MSH (11-13)-NH2 in the same volume of saline. […] The doses of the tripeptides were 10 μg ([…]), 20 μg ([…]), 40 μg (1.04×10^−7 M), and 80 μg (2.08×10^−7 M). Immediately after saline or α-MSH injection, a micropipette was used to coat both sides of each ear with 10 μl (40 μl per mouse) of a 0.5% picryl chloride (Polysciences, Warrington, Pa.) solution in acetone.
Ear thickness was remeasured 3 and 6 h after picryl chloride application. Swelling was determined by subtracting baseline thickness from the measurements for each ear at 3 and 6 h. The differences for both ears were then averaged for the final analysis.
Repeated-measure ANOVA techniques were used to determine if there was an overall difference among group data for each peptide tested in separate experiments. In those cases in which the ANOVA yielded significant results, Dunnett's test was then used to compare the effects of peptide doses with control (saline) data for each of the two time periods, 3 and 6 h.

C[C@]12CCC(=O)C=C1CC[C@@H]1[C@@H]2[C@@H](O)C[C@@]2(C)[C@H]1CC[C@]2(O)C(=O)CO [hydrocortisone, reference compound]
inhibition of paw swelling in the first hour ([1]; 100 mg/kg intraperitoneal, first hour): markedly inhibited swelling

ACTH (1-24): melanocortin peptide ACTH (1-24) (SYSMEHFRWGKPVGKKRRPVKVYP; Corticotropin; UniProt P01189 138-161, looked up, fragment) [reference compound]
reduction of production of NO2^− (NO2^−): 41%
reduction of production of TNF-α (TNF-α): 38%
mRNA for TNF-α and iNOS (Northern blot) (TNF-α and iNOS mRNA): inhibition of mRNA transaction for TNF-α and iNOS
reduction of production of IL-6 (IL-6): 65%

Ac-Lys-Pro-Val-NH2 [Ac-α-MSH(11-13)-NH2, protected tripeptide]
anti-inflammatory effect after spinal cord transection [2]: marked inhibitory effect on inflammation
inhibition of paw edema compared with hydrocortisone ([1]; 100 mg/kg intraperitoneal each, hourly, after the first hour): no significant difference in the inhibition of paw edema
relative intensity of blue wheals, experimental vs control ([3]; 0.625 ug/kg intravenously): No difference
relative intensity of blue wheals, experimental vs control ([3]; 1.25 ug/kg intravenously): E lighter than C
relative intensity of blue wheals, experimental vs control ([3]; 5 ug/kg intravenously): E lighter than C
relative intensity of blue wheals, experimental vs control ([3]; 10 ug/kg intravenously): E lighter than C
lowest intravenous dose with appreciable reduction in blue weal formation ([3]; intravenous): 1.25 ug tripeptide per kg body weight
% Inhibition of swelling ([4]; 10 μg IP, 3 h): 26%
% Inhibition of swelling ([4]; 10 μg IP, 6 h): 25%
% Inhibition of swelling ([4]; 20 μg IP, 3 h): 21%
% Inhibition of swelling ([4]; 20 μg IP, 6 h): 19%
% Inhibition of swelling ([4]; 40 μg IP, 3 h): 33%
% Inhibition of swelling ([4]; 40 μg IP, 6 h): 26%
% Inhibition of swelling ([4]; 80 μg IP, 3 h): 50%
% Inhibition of swelling ([4]; 80 μg IP, 6 h): 42%
overall effect on ear inflammation (ANOVA) ([4]; 10-80 μg IP, 3 and 6 h): inhibited acute inflammation
